Consider one compound from PMC7238232, “Acamprosate Is a Substrate of the Human Organic Anion Transporter (OAT) 1 without OAT3 Inhibitory Properties: Implications for Renal Acamprosate Secretion and Drug–Drug Interactions” (Pharmaceutics, 2020).

Data set [1] addresses T1, OAT1 (Homo sapiens, UniProt Q4U2R8).
T1 sequence (Q4U2R8 1-563): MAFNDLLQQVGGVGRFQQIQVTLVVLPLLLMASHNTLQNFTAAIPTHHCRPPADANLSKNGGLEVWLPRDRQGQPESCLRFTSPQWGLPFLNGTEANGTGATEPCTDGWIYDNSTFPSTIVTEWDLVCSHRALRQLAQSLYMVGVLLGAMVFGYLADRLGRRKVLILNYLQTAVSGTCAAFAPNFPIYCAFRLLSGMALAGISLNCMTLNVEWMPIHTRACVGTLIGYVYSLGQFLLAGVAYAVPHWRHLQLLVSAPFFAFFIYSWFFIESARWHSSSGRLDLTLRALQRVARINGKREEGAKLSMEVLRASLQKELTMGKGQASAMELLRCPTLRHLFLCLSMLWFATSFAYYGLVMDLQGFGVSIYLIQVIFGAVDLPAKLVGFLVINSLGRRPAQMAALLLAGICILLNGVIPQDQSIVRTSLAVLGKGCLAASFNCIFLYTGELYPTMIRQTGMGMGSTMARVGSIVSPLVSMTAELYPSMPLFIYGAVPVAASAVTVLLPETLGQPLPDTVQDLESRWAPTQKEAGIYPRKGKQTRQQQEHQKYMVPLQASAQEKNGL
The experiment in a line: [14C]-PAH uptake and its inhibition in HEK293-Flp-In OAT1 cells. The protocol:
All uptake experiments were performed on 24- or 96-well plates. Before the experiment initiation, the cells were incubated with either 500 or 200 µL∙well^−1 prewarmed buffer for 10 min at 37 °C in a microplate incubator (VWR International AB, Stockholm, Sweden), without shaking. […] The experiment was stopped by adding 200 µL∙well^−1 of ice-cold buffer and subsequent rinse three times with the same amount of buffer. In Lab. 1 the sample analysis of the OAT1/OAT3/mock studies consisted in removing the rinsing buffer and lysing the cells with 70 µL 1M NaOH, following by incubation for 60 min at 37 °C and 100 rpm. A total of 50 µL of cell lysate from each well was transferred to 96-well Luma plates bottom coated with dry scintillant. Then, 2∙20 µL of each donor and three 50 µL blank samples were applied on the same plate. The dry plates were covered with transparent seals and analyzed using a TopCount NXT Microplate Scintillation and Luminescence Counter (Perkin Elmer, Waltham, MA, USA). The remaining 20 µL cell lysate was neutralized with 20 µL 1M HCl∙well^−1, samples were mixed thoroughly and the total protein content in all the wells was measured using a BCA protein assay kit, microplate method, and a Tecan Safire II fluorometer (Tecan Austria GmbH, Grödig, Austria). For the experiments in Lab. 2, the cells were lysed by adding 200 µL 0.1% Triton X-100 and incubated for 5 min at 37 °C and 100 rpm. […] The total protein content was measured by using a BCA protein assay kit and a FLUOStar Omega fluorescence microplate reader (BMG Labtech, Ortenberg, Germany). The protein assay for the OAT3 and mock cell lines was performed in four independent wells of each cell line, seeded and treated in the same manner as the cells used in the uptake assay. For all the OAT1, OAT3, and mock isotope uptake studies, the radiolabelled tracer accumulation (pmol) in each well was calculated by first determining the activity of the isotope (DPM∙pmol^−1) from the radioactivity (DPM) of the donor sample divided by the theoretical isotope concentration (pmol), then dividing the total radioactivity in the well (DPM) to the specific activity of the isotope (DPM∙pmol^−1).
A range of preincubation solutions was prepared at the same concentrations of acamprosate applied in the inhibition assays. Acamprosate was dissolved in HBSS buffered with 10 mM HEPES and the pH was adjusted to 7.40 ± 0.01. The preincubation solutions were prewarmed to 37 °C and applied to the corresponding cells after removing the cell growth medium. The preincubation was done for 3 h, at 37 °C, without shaking. After the preincubation, the solutions were removed, and the inhibition experiment was performed as described in the Section 2.6.
(§1) The obtained intracellular amounts (pmol) were normalized to the assay time (min) and cell surface area (cm^2) or protein amount (mg protein) to obtain a term hereafter referred to as uptake rate. The uptake rate of acamprosate as a function of concentration was fitted to a Michaelis–Menten type equation which includes a saturable and a non-saturable uptake component, (1) V=Vmax · [S]/Km +[S]+P · [S] where V is the substrate uptake rate; Vmax is the maximal uptake rate; P is a constant related to non-saturable apparent uptake, i.e., factors such as passive diffusion, unspecific binding and residual compound present after washing steps, and [S] is the substrate concentration (µM). […] Assuming competitive interaction, equilibrium dissociation constants, Ki, were calculated from the IC50 value for each substrate/inhibitor pair, at substrate Km, using the Cheng–Prusoff equation [24].

Data set [2] addresses T1, OAT1. Briefly: Acamprosate intracellular uptake and inhibition of uptake in HEK293-Flp-In OAT1 cells (LC/MS-MS). It counts as cell-based. The arrangement: expressed in transfected cells; host or cells: HEK293-Flp-In.
Description: as §1

[3] abbreviates: 200 µM acamprosate, 10 min, Lab. 1.

Regarding `CC(=O)NCCCS(=O)(=O)O` [acamprosate, acetylhomotaurinate], the “effect on uptake of [14C]-PAH in OAT1 expressing cells” value on OAT1 [1] (9.5 µM [14C]-PAH, 200 µM PAH, 300 µM probenecid, 1000 and 10,000 µM acamprosate, Lab. 1) is “significantly decreased”. The IC50 (in general, the concentration needed to halve the response being measured) is 582 µM against OAT1 [1] (IC50, 3 h, inhibition of PAH uptake via OAT1, 9.5 µM [14C]-PAH, after 3 h preincubation with inhibitor, Lab. 2); 638 µM on OAT1 [1] (IC50, inhibition of PAH uptake via OAT1, 9.5 µM [14C]-PAH, 3 min, applied concomitantly, Lab. 2); 1390 µM at OAT1 [1] (IC50, inhibition of PAH uptake via OAT1, 9.5 µM [14C]-PAH, 5 min, Lab. 1); 287 to 1230 µM against OAT1 [1] (human, hek293-flp-in oat1 cells, IC50, p-Aminohippuric Acid (PAH), input for DDI index, Table A1, for acamprosate interval of obtained values); 631 µM against OAT1 [1] (log IC50 ± log S.E.M., 3 h, inhibition of PAH uptake via OAT1, after 3 h preincubation, Lab. 2, log of IC50 in µM); 1260 µM on OAT1 [1] (log IC50 ± log S.E.M., inhibition of PAH uptake via OAT1, 9.5 µM [14C]-PAH, 5 min, Lab. 1, log of IC50 in µM). Moreover, the IC50 against OAT1 [1] (log IC50 ± log S.E.M., inhibition of PAH uptake via OAT1, 3 min, applied concomitantly, Lab. 2, log of IC50 in µM) was 631 µM. In addition, the Ki (usually the equilibrium dissociation constant of an inhibitor or competing ligand from its target) is 1230 ± 341 µM on OAT1 [1] (Ki of acamprosate on PAH uptake, fit to competitive kinetics (Equation 4), Lab. 2); 287 µM on OAT1 [1] (Ki, inhibition of PAH uptake via OAT1, 3 h, Cheng-Prusoff, after 3 h preincubation, Lab. 2); 1140 µM on OAT1 [1] (Ki, inhibition of PAH uptake via OAT1, Cheng-Prusoff from IC50, competitive inhibition assumed, Lab. 1); 315 µM on OAT1 [1] (Ki, inhibition of PAH uptake via OAT1, Cheng-Prusoff, applied concomitantly, Lab. 2); 638 µM on OAT1 [1] (OAT1 inhibiting Ki-value); 582 to 1230 µM on OAT1 [1] (human, Ki values, inhibition of OAT1-mediated transport of PAH, range over the two laboratories). Also, on OAT1 [1] (OAT1 expressing cells, 0–10,000 µM acamprosate, 200 µM PAH, 300 µM probenecid, Lab. 2), the “effect of 3 h preincubation on inhibition of [14C]-PAH uptake” value is “no apparent effect”. Moreover, the “mechanism of inhibition of OAT1-mediated PAH transport” value on OAT1 [1] (PAH uptake with 0, 625, 1250 or 2500 µM acamprosate, Lab. 2) is “competitive”. Moreover, the “acamprosate uptake in OAT1 expressing cells compared to mock and OAT3 expressing cells” value on OAT1 [2] (setting [3]) is reported as “statistically significantly higher”. For the same compound, the “acamprosate uptake rate in OAT1 cells relative to mock-transfected cells” value at OAT1 [2] (setting [3]) is listed as “approximately 20 fold”. Also, the “P, non-saturable apparent uptake constant” value at OAT1 [2] (HEK293-Flp-In OAT1 cells, Lab. 1) was determined as 0.35 ± 0.04 µL∙mg protein^−1∙min^−1. Further, at OAT1 [2] (criterion of relatively OAT1-specific substrate), the “uptake by OAT1 as compared to OAT3” value is recorded as “at least 5 ×”.
